We go through 14 compounds from patent publication US5219872A, “Compounds of 1,2,5,6-tetrahydropyridin-3-carboxaldehyde oxime which are useful as cholinergic agents” (Roussel UCLAF, priority 1986, dated 1993).

Each structure is given as a SMILES string. Structures can show the parent of a compound that is named as a salt. Where two headings read alike, the source gives them in different places.

The nature of data set [1]: in vivo. Particulars: rat, oral route, male rats CD1, fasting 16 hours, mortality in seven days. The method, then: Male rats (CD1 Charles Rivers) were used, weighing […], fasting for 16 hours. […] The mortality was checked in the seven days following the treatment.
For data set [2], the system named is isolated ileum from guinea-pigs. Description: Isolated guinea-pig ileum: contracting (agonist) activity. Conditions: Cavia porcellus, read-out: pD2 (negative logarithm of the dose which produces 50% of the maximum effect) (converted).
Protocol: Sections of ileum were removed from guinea-pigs killed by decapitation. […] The contracting effect of the compounds was detected, with an isometric transducer connected to a recorder. The products under test were added at scalar concentrations between 1×10^-3 and 1×10^-8 moles.
The agonist activity was expressed in pD2 (negative logarithm of the dose which produces 50% of the maximum effect.)
Data set [3] in a line: Hypothermic activity (central cholinomimetic activity). In kind it is in vivo. Conditions: Mus musculus, read-out: Effective dose (-1° C.).
Protocol: (§1) Male mice (CD1 Charles Rivers) were used, weighing 25-30 g, fasting for 6 hours. The body temperature was noted by means of a thermo-couple, inserted in the rectum for about 1.5 cm and connected to an electric temperature indicator.
(§2) The degree of hypothermia was evaluated as the difference between the treated and the control animals, and the dose was determined which was necessary to reduce the body temperature by 1° C.
Data set [4] can be described thus: Diarrhoea activity. Conditions: rat, in vivo, po.
Protocol: Male rats (CD1 Charles Rivers) were used, weighing 25-30 g, fasting for 6 hours. The compounds were administered by oral route, by means of an oesophagic probe, dissolved at 0.5% in methocel. The controls received only the vehicle (20 ml/Kg).
1: faeces moderately soft with or without formation of a halo of humidity
2: faeces moderately soft with formation of a well defined circle of humidity,
3: faeces soft, with formation of a large circle of humidity,
4: faeces without consistency with formation of a very large circle of humidity.
Data set [5] deals with patients having a memory defect. Conditions: intravenous route; Sitaram 1978, Christie 1981; cited from earlier work.
For data set [6] the following is noted: cited from earlier work.
Data set [7] in a line: Duration of action: variations of the body temperature. In kind it is in vivo, mouse. Particulars: dose mg/kg: Example 3 0,15, 7 1,25.
Protocol: as §1, §2
The duration of action of the products was evaluated using doses of equal ability to cause a reduction of body temperature of 1°-1,5° C.
For data set [8], the system named is isolated ileum from guinea-pigs (response induced with acetylcholine). Description: Isolated guinea-pig ileum: antagonist activity against acetylcholine. Particulars: Cavia porcellus; antagonist activity vs acetylcholine; Tyrode's solution 37° C.; products added between 1×10^-3 and 1×10^-8 moles; read-out: ED50 (dose inhibiting 50% of the maximum response induced with acetylcholine). As to the method:
ILEUM FROM GUINEA-PIGS Sections of ileum were removed from guinea-pigs killed by decapitation. The isolated ileum was suspended in a bath containing 10 ml of Tyrode's solution thermo-regulated at 37° C. and aerated with a mixture of O2 (95%) and CO2 (5%). The contracting effect of the compounds was detected, with an isometric transducer connected to a recorder. The products under test were added at scalar concentrations between 1×10^-3 and 1×10^-8 moles. The products endowed with contracting activity were checked against atropine or hexamethonium to establish whether the activity was of muscarine type or nicotine type. The possible antagonist activity of the products was tested against acetylcholine.

The mark [9] stands for this setting: agonist activity, Tyrode's solution 37° C.
[10] abbreviates: sc, sub-cutaneous, dose to reduce the body temperature by 1° C.
Where [11] appears, read: oral, dose to reduce the body temperature by 1° C.
Where [12] appears, read: os, 30 minutes, 8 0,5, 10 0,5, arecoline HBr 200, ** p < 0,01 vs controls (all values).
Where [13] appears, read: os, 60 minutes, 8 0,5, 10 0,5, arecoline HBr 200, ** p < 0,01 vs controls (all values).
Where [14] appears, read: os, 120 minutes, 8 0,5, 10 0,5, arecoline HBr 200, ** p < 0,01 for Example 7 only.
[15] abbreviates: sc, 30 minutes, 8 1, 10 0,75, arecoline HBr 3,5, ** p < 0,01 vs controls (all values).
[16] abbreviates: sc, 60 minutes, 8 1, 10 0,75, arecoline HBr 3,5, ** p < 0,01 for Examples 3, 7, 8, 10.
Where [17] appears, read: sc, 120 minutes, 8 1, 10 0,75, arecoline HBr 3,5, ** p < 0,01 for Example 7 only.
The mark [18] stands for this setting: sc, 180 minutes, 8 1, 10 0,75, arecoline HBr 3,5.
The mark [19] stands for this setting: os, 180 minutes, 8 0,5, 10 0,5, arecoline HBr 200.
Setting [20] is: os, 0 minutes, 8 0,5, 10 0,5, arecoline HBr 200.

In general, LD50 refers to the dose at which mortality reaches 50%. A low value points to a more toxic substance. For orientation: ED50 means the midpoint of the dose-response relation. The compound `C#CCON=CC1=CCCN(C)C1` [Example 12, 1-methyl-1,2,5,6-tetrahydropyridin-3-carboxaldehyde-O-propargyloxime] yielded an LD50 at 168 h in data set [1] of 60 mg/kg. In addition, in data set [2] (setting [9]), the EC50 is 0.479 µM. Also, the ED (-1 C) in data set [3] (setting [10]) is 0.63 mg/kg; in data set [3] (setting [11]) it was 2 mg/kg. For the same compound, it took a dose of 5.5 mg/kg to reach the 50% effect level in data set [4] (ED50).

For the compound `COC(=O)C1=CCCN(C)C1` [Arecoline], in data set [2], the EC50 was 0.331 µM. For the same compound, the “effect on patients having a memory defect” value in data set [5] is given as “positive effect”. Moreover, in data set [6] (in vivo), the duration of action entry was “short duration of action”. For the same compound, the “activity by oral route” value in data set [6] (oral route) is “very weak activity”.

In data set [1], `CCCN1CCC=C(C=NOC)C1` [Example 8] yielded an LD50 at 168 h of 100 mg/kg. For the same compound, the EC50 in data set [2] (setting [9]) was 25.1 µM. Further, the ED (-1 C) in data set [3] (setting [10]) is 0.83 mg/kg; in data set [3] (setting [11]) it was 0.34 mg/kg. Moreover, the “variation of the body temperature” value in data set [7] (setting [12]) is -1,5 °C; in data set [7] (setting [13]), -1,3 °C; in data set [7] (setting [14]), -0,4 °C; in data set [7] (setting [15]), -0,7 °C; in data set [7] (setting [16]), -1,2 °C; in data set [7] (setting [17]), -0,2 °C. For the same compound, in data set [7] (setting [18]), the “variation of the body temperature” value was -0,1 °C. In data set [4], this compound returned an ED50 of 1.7 mg/kg.

`CCON=CC1=CCCN(C)C1.Cl` [Example 2, 1-methyl-1,2,5,6-tetrahydropyridin-3-carboxaldehyde-O-ethyloxime hydrochloride] yielded an LD50 at 168 h in data set [1] of 250 mg/kg. The EC50 in data set [2] (setting [9]) is over 1000 µM. In addition, the IC50 in data set [8] amounted to 180 µM. The ED (-1 C) in data set [3] (setting [10]) was determined as 11 mg/kg; in data set [3] (setting [11]), 13 mg/kg. Besides, the ED50 in data set [4] worked out at 50 mg/kg.

Consider `CCN1CCC=C(C=NOC)C1.Cl` [Example 7, 1-ethyl-1,2,5,6-tetrahydro-pyridin-3-carboxaldehyde-O-methyloxime hydrochloride], for which, in data set [2] (setting [9]), the EC50 is over 1000 µM. Further, the IC50 in data set [8] is 200 µM. Besides, the ED (-1 C) in data set [3] (setting [10]) was 1.16 mg/kg; in data set [3] (setting [11]) it was 0.97 mg/kg. Besides, the “variation of the body temperature” value in data set [7] (setting [12]) is -1,1 °C; in data set [7] (setting [13]), -1,1 °C; in data set [7] (setting [14]), -0,6 °C; in data set [7] (setting [19]), -0,2 °C; in data set [7] (setting [15]), -0,5 °C; in data set [7] (setting [16]) it was -1,0 °C. The entries for the “variation of the body temperature” value in data set [7] (setting [17]) and in data set [7] (setting [18]) were -0,6 °C and -0,1 °C, respectively. Besides, in data set [4], the 50% effect level (ED50) was put at a dose of 10 mg/kg.

Compound `CC(=O)ON=CC1=CCCN(C)C1` [Example 5, 1-methyl-1,2,5,6-tetrahydropyridin-3-carboxaldehyde-0-acetyl-oxime] registered an LD50 at 168 h in data set [1] of 500 mg/kg. Besides, the EC50 in data set [2] (setting [9]) was 51.3 µM. Also, in data set [3] (setting [11]), the ED (-1 C) turned out to be 39 mg/kg. Also, the ED50 in data set [4] was over 100 mg/kg.

`CN(C)CCON=CC1=CCCN(C)C1` [Example 6, 3-[2-(N,N-dimethylaminoethoxyimino)-methyl]-1-methyl-1,2,5,6-tetrahydropyridine] registered an LD50 at 168 h in data set [1] of 750 mg/kg. The EC50 in data set [2] (setting [9]) was 148 µM. In addition, in data set [3] (setting [11]), the ED (-1 C) came out at 135 mg/kg. Also, the ED50 in data set [4] was over 100 mg/kg.

For `C=CCN1CCC=C(C=NOC)C1` [Example 10, 1-allyl-1,2,5,6-tetrahydropyridin-3-carboxaldehyde-O-methyloxime], the LD50 at 168 h in data set [1] worked out at 175 mg/kg. Moreover, in data set [2] (setting [9]), the EC50 is 15.8 µM. For the same compound, the ED (-1 C) was determined as 0.86 mg/kg in data set [3] (setting [10]) and 0.34 mg/kg in data set [3] (setting [11]). The “variation of the body temperature” value in data set [7] (setting [20]) is -0,1 °C; in data set [7] (setting [12]) it was -1,5 °C; in data set [7] (setting [13]) it was -0,7 °C; in data set [7] (setting [14]), -0,1 °C; in data set [7] (setting [19]) it was “+0,2 °C”; in data set [7] (setting [15]), -0,8 °C. Also, the entries for the “variation of the body temperature” value in data set [7] (setting [16]), in data set [7] (setting [17]) and in data set [7] (setting [18]) were -1,0 °C, -0,1 °C and “+0,1 °C”, respectively. Besides, the 50% effect level in data set [4] (ED50) was put at a dose of 1.2 mg/kg.

Consider `CCCCCN1CCC=C(C=NOC)C1` [Example 11, 1-pentyl-1,2,5,6-tetrahydropyridin-3-carboxaldehyde-O-methyloxime], for which the LD50 at 168 h in data set [1] came out at 175 mg/kg. Moreover, the EC50 in data set [2] (setting [9]) was over 1000 µM. Further, the IC50 in data set [8] came to 160 µM. Besides, the ED (-1 C) in data set [3] (setting [10]) amounted to 4 mg/kg; in data set [3] (setting [11]), 3 mg/kg. The compound further returned an ED50 in data set [4] of 5 mg/kg.

Regarding `CC(C)ON=CC1=CCCN(C)C1` [Example 4, O-isopropyl-N-methyl-1,2,5,6-tetrahydropyridin-3-carboxaldehyde oxime hydrochloride], the median lethal dose (LD50) at 168 h in data set [1] worked out at 350 mg/kg. Further, the EC50 in data set [2] (setting [9]) was over 1000 µM. In addition, the IC50 in data set [8] was found to be 11 µM. Also, the ED (-1 C) in data set [3] (setting [11]) was 40 mg/kg. Moreover, the ED50 in data set [4] was over 100 mg/kg.

Consider `CON=CC1=CCCNC1.Cl` [Example 3, 1,2,5,6-tetrahydropyridin-3-carboxaldehyde-O-methyloxime Hydrochloride], for which the LD50 at 168 h in data set [1] was determined as 75 mg/kg. The EC50 in data set [2] (setting [9]) is 0.263 µM. The ED (-1 C) in data set [3] (setting [10]) worked out at 0.12 mg/kg; in data set [3] (setting [11]), 0.11 mg/kg. Besides, the “variation of the body temperature” value is “+0.1 °C” in data set [7] (setting [20]); -1,5 °C in data set [7] (setting [12]); -0,8 °C in data set [7] (setting [13]); -0,2 °C in data set [7] (setting [14]); -1,2 °C in data set [7] (setting [15]); -0,8 °C in data set [7] (setting [16]). The “variation of the body temperature” value in data set [7] (setting [17]) was -0,2 °C; in data set [7] (setting [18]) it was -0,1 °C. In data set [4], this compound yielded an ED50 of 0.15 mg/kg.

For `CCCCN1CCC=C(C=NOC)C1` [Example 9, 1-butyl-1,2,5,6-tetrahydropyridin-3-carboxaldehyde-O-methyloxime], the 50% lethal dose (LD50) at 168 h in data set [1] was found to be 30 mg/kg. Also, the EC50 in data set [2] (setting [9]) was over 1000 µM. The IC50 in data set [8] is 230 µM. The ED (-1 C) worked out at 0.85 mg/kg in data set [3] (setting [10]) and 0.79 mg/kg in data set [3] (setting [11]). In data set [4], this compound came in with an ED50 of 3.5 mg/kg.

Regarding `COC(=O)C1=CCCN(C)C1` [Arecoline HBr, reference compound], the ED (-1 C) in data set [3] (po) was found to be 194 mg/kg; in data set [3] (sc), 3 mg/kg. In addition, the “variation of the body temperature” value in data set [7] (setting [20]) was “+0,1 °C”; in data set [7] (setting [12]) it was -1,1 °C; in data set [7] (setting [13]), -1,0 °C; in data set [7] (setting [14]) it was -0,2 °C; in data set [7] (setting [19]) it was -0,1 °C; in data set [7] (sc, 0 minutes, 8 1, 10 0,75, arecoline HBr 3,5), -0,1 °C. Besides, the “variation of the body temperature” value was -1,5 °C in data set [7] (setting [15]), -0,1 °C in data set [7] (setting [16]), “+0,2 °C” in data set [7] (setting [17]) and “+0,2 °C” in data set [7] (setting [18]). The compound further came in with an ED50 in data set [4] of 35 mg/kg.

As to `CON=CC1=CCCN(C)C1` [Example 1, 1-methyl-1,2,5,6-tetrahydropyridin-3-carboxyaldehyde-O-methyloxime hydrochloride], the EC50 in data set [2] (setting [9]) was 0.525 µM. Moreover, the ED (-1 C) turned out to be 0.14 mg/kg in data set [3] (setting [10]) and 0.46 mg/kg in data set [3] (setting [11]). Also, it took a dose of 0.6 mg/kg to reach the 50% effect level in data set [4] (ED50).
